Key:
[1] = tested on: U87 cells; test: MTT cell viability assay, U87; assay type: cell-based; details: Homo sapiens, U-87 MG, 72 h treatment
Method: (§1) Cell viability was measured using the colorimetric MTT assay based on the reduction of MTT into formazan dye. Cell lines were seeded into 96-well cell culture plates (4000 cells/well) in appropriate medium. After overnight incubation, cells were treated with increasing concentrations of 1, 2, 3, 4, 5, and 6 (0.5, 1, 2, 4, and 8 µM). After 72 h treatment, MTT solution (4 mg/mL) was added and plates were incubated at 37 °C with 5% CO2 for 3 h. After incubation, formazan crystals were dissolved using 100 µL DMSO, resulting in a purple color. The absorbance was measured at 570 nm with a reference wavelength of 690 nm using an automated microplate reader (MultiskanSky, Thermo Scientific, USA). The IC50 values were determined by non-linear regression analysis in GraphPad Prism 8.0.2. software (GraphPad Software, Boston, MA, USA).

[2] = tested on: SVG p12 cells; test: MTT cell viability assay, SVG p12; assay type: cell-based, human; details: for IC50: Homo sapiens, SVGp12, 72 h treatment, MTT, normal glial cell line; for Selectivity Index: IC50 SVG p12 vs average IC50 in A-172, U87 and U87-TxR
Method: as §1

[3] = tested on: U87-TxR cells; test: Cell death detection, AV/PI staining, U87-TxR; assay type: cell-based, human; details: 48 h; for cell death effect in MDR U87-TxR cells vs sensitive U87 cells: 4 µM, AV/PI; for percentage of early apoptotic cells vs untreated: 2 µM and 4 µM, particularly at 4 µM
Method: To evaluate the extent of cell death upon treatment with adamantane–sclareol hybrids, apoptotic, necrotic, and viable cell populations were assessed using dual staining with AV/PI. U87 and U87-TxR cells were seeded in 6-well plates at a density of 150,000 cells per well and incubated overnight. Subsequently, cells were treated with 2 and 5 (2 µM and 4 µM) for 48 h. At the end of the treatment period, cells were collected (both adherent and floating), washed, and incubated with AV/PI in binding buffer. Samples were analyzed using a CytoFLEX flow cytometer (Beckman Coulter, Indianapolis, IN, USA), with fluorescence signals detected at 525 nm (AV) and 585 nm (PI). At least 10,000 events were recorded per each condition. The percentages of viable (AV^− PI^−), early apoptotic (AV^+ PI^−), late apoptotic (AV^+ PI^+), and necrotic (AV^− PI^+) cells were calculated using CytExpert 2.4.0.28 software (Beckman Coulter, Indianapolis, IN, USA).

[4] = tested on: H2O2 and peroxynitrite anion levels in U87-TxR cells; test: ROS detection by DHR, U87-TxR; assay type: cell-based, human; details: 4 µM, 24 h and 48 h
Method: (§2) The levels of ROS were measured in U87 and U87-TxR cells by flow cytometry. The production of superoxide anions was detected using DHE fluorescence dye, while production of H2O2 and peroxynitrite anions was detected using DHR fluorescence dye. Cells were seeded in 6-well plates (150,000 cell/well) and incubated overnight. The cells were then treated with compounds 2 or 5 (4 μM) for 24 h and 48 h. CDDP (10 μM) was used as a positive control. After the treatment period, the cells were stained with DHE or DHR for 30 min in the dark. Following incubation, cells were harvested with trypsinization and washed twice in cold phosphate buffer solution (PBS). Fluorescence was measured on a CytoFlex flow cytometer (Beckman Coulter, Indianapolis, IN, USA). Green fluorescence from the oxidized DHR dye was detected at 525 nm, while the red fluorescence from ethidium derived from DHE was detected at 585 nm. At least 10,000 events were assayed for each sample. The results were analyzed by CytExpert 2.4.0.28 software (Beckman Coulter, Indianapolis, IN, USA).

[5] = tested on: H2O2 and peroxynitrite anion levels in U87 cells; test: ROS detection by DHR, U87; assay type: cell-based, human; details: 4 µM, 24 h and 48 h
Method: as §2

[6] = tested on: intracellular superoxide anion in U87 and U87-TxR cells; test: Superoxide anion detection by DHE; assay type: cell-based, human; details: 4 µM, 24 h and 48 h
Method: as §2

[7] = tested on: mitochondrial membrane potential in U87 and U87-TxR cells; test: TMRE mitochondrial membrane potential; assay type: cell-based, human; details: 4 µM, 24 h, both cell lines
Method: The cell-permeable fluorescent dye TMRE was used to evaluate mitochondrial membrane potential. TMRE selectively accumulates in active mitochondria with intact membrane potential. […] U87 and U87-TxR cells were seeded in 6-well plates at a density of 150,000 cells per well. After 24 h, cells were treated with 2 and 5 (4 µM) and incubated for an additional 24 h. After treatment, cells were trypsinized, resuspended in complete medium containing 500 nM TMRE, and incubated for 30 min at 37 °C in the dark. CCCP (10 µM) was used as a positive control for mitochondrial depolarization and added 30 min before staining. For each sample, at least 10,000 events were collected. TMRE was detected at […]. The results were calculated using CytExpert 2.4.0.28 software (Beckman Coulter, Indianapolis, IN, USA).

[8] = tested on: antioxidant-related gene mRNA in U87 cells; test: RT-qPCR of oxidative-stress-related genes, U87; assay type: cell-based, human; details: U87, 4 µM, 24 h; for increase in GPX1 mRNA expression: relative to untreated control
Method: Prior to RNA isolation, U87 and U87-TxR cell were treated with 4 μM 2 and 5 for 24 h. TRIzol® Reagent was used to isolate total RNA according to manufacturer’s instructions. RNA concentration was determined with NanoPhotometer N60 (Implen GmbH, Munchen, Germany). Quality was determined using electrophoresis on a 1.3% agarose gel. Reverse transcription reaction was carried out using High-Capacity cDNA Reverse Transcription Kit with RNase Inhibitor.
Quantitative RT-PCR (RT-qPCR) was performed to evaluate mRNA expression levels of CAT, GSR, SOD2, GPX1, GPX4, GST, TRX1, and TRXR1, with ACTB used as the reference gene. Reactions were carried out using Maxima SYBR Green/ROX qPCR Master Mix (Thermo Fisher Scientific, Waltham, MA, USA) in the QuantStudio™ 3 Real-Time PCR System (Applied Biosystems by Thermo Fisher Scientific). Thermocycling conditions consisted of an initial incubation at 50 °C for 5 min, followed by denaturation at 95 °C for 10 min and then 40 cycles of amplification with denaturation at 95 °C for 15 s and annealing/extension at 60 °C for 60 s. Relative gene expression levels were calculated using the ΔΔCt method, normalizing target gene expression to ACTB. All reactions were performed in technical triplicates.

| Structure (SMILES) | IC50 [1] [µM] | IC50 [2] [µM] | Selectivity Index [2] | cell death effect in MDR U87-TxR cells vs sensitive U87 cells [3] | percentage of early apoptotic cells vs untreated [3] | DHR fluorescence (H2O2 and peroxynitrite anion levels) [4] | H2O2 and peroxynitrite anion levels (DHR) [5] | intracellular superoxide anion levels (DHE) [6] | TMRE fluorescence (mitochondrial membrane potential) [7] | CAT mRNA expression levels [8] | GSTP gene expression [8] | TRX1 mRNA [8] | increase in GPX1 mRNA expression [8] [fold] | early apoptotic population (AV+ PI−) ([3]; untreated cells 4.17%, Figure S3) [%] |
| --- | --- | --- | --- | --- | --- | --- | --- | --- | --- | --- | --- | --- | --- | --- |
| CC1(C)CCC[C@]2(C)[C@@H](CC[C@@](C)(O)/C=C/c3ccc(CNCCCCCCCCNCC45CC6CC(CC(C6)C4)C5)s3)[C@](C)(O)CC[C@@H]12 [Compound 2] | 2.59 ± 0.068 | 6.2 ± 0.145 | 2.813 ^S | significantly better effects in MDR U87-TxR cells | significant increase | increase in DHR fluorescence | slight or no increase | no significant changes | decreased | remained unchanged | significantly increased | significant downregulation | 1.8 |  |
| CC1(C)CCC[C@]2(C)[C@@H](CC[C@@](C)(O)/C=C/c3ccc(CNCCCCCCCCNCC45CC6CC(CC(C6)C4)C5)o3)[C@](C)(O)CC[C@@H]12 [Compound 5] | 5.13 ± 0.139 | 6.69 ± 0.128 | 1.470 | significantly better effects in MDR U87-TxR cells | significant increase | increase in DHR fluorescence | slight or no increase | no significant changes | decreased | remained unchanged | significantly increased |  | 2.2 | 32.6 |
